Test results as given in patent US20030190368A1, “METHODS OF DIAGNOSIS AND TRIAGE USING CELL ACTIVATION MEASURES” (priority 1998, published 2003).
Entries after “also recorded” stand apart in the source; their conditions may differ.

Columns and labels:
neutrophils = settings: cited from earlier work
[1] = pH and solubility of Futhan; assay type: physicochemical
Procedure: The reasons for the ineffectiveness of Futhan in ameliorating SAO shock in initial experiments appeared to be due to the pH of Futhan in solution, which is approximately 3.5 at the concentration of I mg/ml in 5% glucose-deionized (DI) water as per the manufacturer's instructions. Under the established protocol, approximately 2 ml of this solution were injected at the rate of 0.05 ml every 5 minutes into an approximate rat blood volume of 20 ml. In sham-shocked animals (not reported here) the buffering capacity of blood is able to absorb any perturbations in pH. In shocked animals, however, the pH buffering capacity, especially of the pancreas and small intestine, is severely compromised. Thus, the injection of Futhan would contribute to irreversible acidosis. […] Although the animals recovered from these transient depressions of MAP, Futhan injected animals typically expressed a lower MAP than the saline-injected group. This difference was not significant.

human neutrophils = assay: Neutrophil response to fluid shear-stress in vitro; assay type: cell-based
Procedure: In these experiments the shear-stress was kept sufficiently low (˜1 dyn/cm2) to avoid significant viscoelastic cell deformation. Fresh leukocytes from pin-pricked blood of healthy volunteers were collected in Vacutainer tubes (sodium heparin pre-treated, Becton Dickinson, Franklin Lakes, N.J.). The red blood cells were allowed to sediment at room temperature for about 30 minutes. The supernatant mixture of 1 part platelets and leukocytes was resuspended in 20 parts Plasma Lyte (Baxter Healthcare Corp., Deerfield, Ill.). Neutrophils, monocytes and lymphocytes were identified by their morphology (125× magnification). All experiments were performed within four hours following blood collection.
100 μl of the cell preparation was deposited into a small chamber with a transparent bottom on an inverted microscope (Leitz Diavert, Germany) with a 50× objective. […]
Filmed neutrophils presented various responses to shear-stress. In order to quantify the results neutrophil response was divided into three categories: […]

[2] = system: isolated naive human neutrophils; assay: Pseudopod formation test: protease inhibitors against pancreatic homogenate-induced neutrophil activation; assay type: cell-based
Procedure: For the pseudopod assay, venous blood is collected in heparinized tubes from healthy human volunteers and put on ice. It is important that heparin and not EDTA ([…]) be used as an anticoagulant, as the calcium-chelating properties of EDTA can affect neutrophil activation. […] Other chemicals for the Krebs-Henseleit buffer are from Fisher Scientific, Fair Lawn, N.J. The resuspended cells are then gently layered onto 2.5 ml of a 55% isotonic Percoll (Sigmal Chemical Company) solution and 2.5 ml of a 74% isotonic Percoll solution in deionized water. The suspension is centrifuged for 15 minutes at 600 G and the middle granulocyte layer is removed and resuspended in PBS to achieve a concentration of 10^6 neutrophils/ml. 100 μl aliquots of suspended neutrophils are added to 100 μl of test plasma or activating agent. This mixture is mixed and then incubated for 10 minutes at 27° C. After incubation 100 μl of 3% glutaraldehyde (Fisher Scientific) is added to stop the reaction. 100 μl of crystal violet in phosphate (pH: 7.4) buffer is then added to stain leukocyte nuclei on wet mount preparations. Freely suspended neutrophils with pseudopodia are identified by their segmented nuclei and the presence of cytoplasmic granules. One hundred neutrophils are counted. Cells with pseudopod projection greater than about 1 um are considered positive.
Rat homogenate was collected as described in detail in Example 5. Briefly, male Wistar rats (250-350 gm) were housed in a controlled environment and maintained on a standard pellet diet for at least three days before initiation of experimental procedures. Animals were cannulated via the femoral arteries and vein under general anesthesia using pentobarbital (50 mg/kg i.m.). The rats were exsanguinated and the heart, liver, spleen, small intestine, and pancreas removed. The organs were immediately washed and cleaned in cold 0.25 M sucrose solution. Then, the cleaned organs were vigorously homogenized in Krebs-Henseleit solution ([…]). Aliquots were filtered by centrifugation at 500 G for 10 min. Pancreatic homogenates were incubated for 2.5 hours at 38° C., stirred frequently. Incubated pancreatic homogenate as well as controls were tested against naive human donor neutrophils for pseudopod formation as described in Example 2.
To determine whether or not neutrophil activation by pancreatic homogenate is protease dependent, the pseudopod formation test was repeated by preincubation of isolated neutrophils with various protease inhibitors (50 μl) for 10 minutes followed by addition of pancreas homogenate (50 μl) and further incubation for 10 minutes. […] All protease inhibitors were the gift of Dr. Tony E. Hugli of The Scripps Clinic and Research Institute, with the exception of Complete™, an all-purpose protease inhibitor purchased from Boehringer Mannheim, Indianapolis, Ind. One of the components of Complete™ is EDTA (ethylenediaminetetra-acetic acid), a standard anti-coagulant and divalent cation chelator.
To determine whether the protease inhibitors were acting on the pancreatic homogenate or the neutrophils themselves, a new set of neutrophil pseudopod experiments was carried out. […] Appropriate controls were recorded as well as a positive control (10^−7 M fMLP) to determine the washed cells' ability to respond to stimuli. Formyl-methionyl-leucyl-phenylalanine (fMLP) was obtained from Sigma Chemical Company, St. Louis, Mo.

SMILES: CS(=O)(=O)O.CS(=O)(=O)O.N=C(N)Nc1ccc(C(=O)Oc2ccc3cc(C(=N)N)ccc3c2)cc1 [Futhan, 6-amidino-2-naphthyl p-guanidinobenzoate dimethanesulfonate]
- free radical scavenging (neutrophils): does not possess any free radical scavenging effects
- zymosan-induced chemiluminescence activation by neutrophils (neutrophils; in vitro): inhibited zymosan-induced chemiluminescence activation by neutrophils
- pH of Futhan in solution ([1]; I mg/ml in 5% glucose-deionized (DI) water): approximately 3.5
- solubility ([1]; alcohol, rat serum, DMSO, balanced Tris (Trizma) buffer at physiologic pH): insoluble
- effect of Futhan on neutrophil activation in shear-stress test (human neutrophils; 10 μl Futhan 0.05 and 0.13 mg/ml in 5% glucose + 10 μl pig pancreatic homogenate + 80 μl cells): slightly pro-inflammatory effect
- complete response to shear stress of Futhan-treated neutrophils (human neutrophils; Futhan 0.05 and 0.13 mg/ml + pig pancreatic homogenate): no Futhan-treated neutrophil exhibited a complete response
- percent neutrophil activation, Wash group ([2]; neutrophils incubated 10 min with Futhan 0.1 mg/ml, washed two times, then pancreatic homogenate 10 min): 53.5±31%
- percent neutrophil pseudopod formation (activation) by rat pancreatic homogenate in presence of protease inhibitor ([2]; neutrophils preincubated 10 min with inhibitor (PMSF 1 mM; Complete 1 tablet/20 ml; Benzamidine 1150 μM; Futhan 0.1 mg/ml; aprotinin 20 μM), then homogenate 10 min, homogenate alone 85.1±11.5%): 30.3±11.8%
- inhibition of pancreatic homogenate-induced neutrophil activation (in words) ([2]; pseudopod formation, rat pancreatic homogenate, dimethanesulfonate): abolished pancreatic homogenate-induced activation; also recorded: dose-dependent inhibition
- percent neutrophil activation, Inhibitor group ([2]; washed neutrophils incubated with combined Futhan 0.1 mg/ml and pancreatic homogenate): 51.5±34%
